# Reference: patent US10294202B2, “Pyrrolidinones as herbicides” (FMC Corporation, priority 2013, dated 2019)
# What was measured:
# monochoria = assay: Test F flood (paddy) test; assay type: in vivo, Monochoria vaginalis; settings: 21 d, scale 0-100
# Description: (§1) Three plastic pots (ca. 16-cm diameter) per rate were partially filled with sterilized Tama silt loam soil comprising a 35:50:15 ratio of sand, silt and clay and 2.6% organic matter. Separate plantings for each of the three pots were as follows. Seeds from the U.S. of monochoria (Monochoria vaginalis), sedge, umbrella (small-flower umbrella sedge, Cyperus difformis), bulrush, […] bulrush, Scirpus juncoides), and […] (purple […] coccinea), were planted into one 16-cm pot for each rate. Seeds from the U.S. of flatsedge, rice (rice flatsedge, Cyperus iria), sprangletop, Brdd. (bearded sprangletop, Leptochloa fascicularis), one stand of 9 or 10 water seeded rice seedlings (Rice, W.S. Jap, Oryza sativa cv. 'Japonica-[…]' or Rice, W.S. Ind, 'Indica'), and two stands of 3 or 4 seedlings of rice, transplanted (transplanted rice, Oryza sativa cv. 'Japonica-[…]') were planted into one 16-cm pot for each rate. Seeds from the U.S. of barnyardgrass (Echinochloa crus-galli), […] (common […], Alisma plantago-aquatica), and watergrass, late (late watergrass, Echinochloa oryzicola) were planted into one 16-cm pot for each rate. Plantings were sequential so that crop and weed species were at the 2.0 to 2.5-leaf stage at time of treatment. Potted plants were grown in a greenhouse with day/night temperature settings of 30/27° C., and supplemental balanced lighting was provided to maintain a 16-h photoperiod. Test pots were maintained in the greenhouse until test completion. At time of treatment, test pots were flooded to 3 cm above the soil surface, treated by application of test compounds directly to the paddy water, and then maintained at that water depth for the duration of the test. Effects of treatments on rice and weeds were visually evaluated by comparison to untreated controls after 21 d. Plant response ratings, summarized in Table F, are based on a scale of 0 to 100 where 0 is no effect and 100 is complete control. A dash (-) response means no test result.
# rice, transplanted = assay: Test F flood (paddy) test; assay type: in vivo, Oryza sativa cv. Japonica—M202; settings: 21 d, scale 0-100
# Description: as §1
# chickweed = assay: Test D pre-/postemergence herbicide test; assay type: in vivo, Stellaria media; settings: for Plant response rating: Chickweed, scale 0 to 100; for Plant response rating, Chickweed: scale 0 to 100 (0 no effect, 100 complete control)
# Description: (§2) Seeds of plant species selected from bluegrass (annual bluegrass, Poa annua), blackgrass (Alopecurus myosuroides), canarygrass (littleseed canarygrass, Phalaris minor), chickweed (common chickweed, Stellaria media), galium (catchweed bedstraw, Galium aparine), bromegrass, downy (downy bromegrass, Bromus tectorum), field poppy (Papaver rhoeas), field violet (Viola arvensis), foxtail, green (green foxtail, Setaria viridis), deadnettle (henbit deadnettle, Lamium amplexicaule), ryegrass, Italian (Italian ryegrass, Lolium multiflorum), kochia (Kochia scoparia), lambsquarters (Chenopodium album), oilseed rape (Brassica napus), pigweed (Amaranthus retroflexus), chamomile (scentless chamomile, Matricaria inodora), Russian thistle (Salsola kali), speedwell (bird's-eye speedwell, Veronica persica), barley, spring (spring barley, Hordeum vulgare), wheat, spring (spring wheat, Triticum aestivum), buckwheat, wild (wild buckwheat, Polygonum convolvulus), mustard, wild (wild mustard, Sinapis arvensis), oat, wild (wild oat, Avena fatua), radish, wild (wild radish, Raphanus raphanistrum), […]), barley, winter (winter barley, Hordeum vulgare), and wheat, winter (winter wheat, Triticum aestivum) were planted into a silt loam soil and treated preemergence with test chemicals formulated in a non-phytotoxic solvent mixture which included a surfactant. At the same time, these species were planted in pots containing Redi-Earth® planting medium (Scotts Company, 14111 Scottslawn Road, Marysville, Ohio 43041) comprising spaghnum peat moss, vermiculite, wetting agent and starter nutrients and treated with postemergence applications of the test chemicals formulated in the same manner. Plants ranged in height from 2 to 18 cm (1- to 4-leaf stage). Treated plants and controls were maintained in a controlled growth environment for 7 to 21 days after which time all species were compared to controls and visually evaluated. Plant response ratings, summarized in Table D, are based on a scale of 0 to 100 where 0 is no effect and 100 is complete control. A dash (-) response means no test result.
# kochia = assay: Test D pre-/postemergence herbicide test; assay type: in vivo, Kochia scoparia; settings: for Plant response rating: Kochia, scale 0 to 100; for Plant response rating, Kochia: scale 0 to 100 (0 no effect, 100 complete control)
# Description: as §2
# chamomile = assay: Test D pre-/postemergence herbicide test; assay type: in vivo, Matricaria inodora; settings: for Plant response rating: Chamomile, scale 0 to 100; for Plant response rating, Chamomile: scale 0 to 100 (0 no effect, 100 complete control)
# Description: as §2
Compound,"Plant response rating, Monochoria (monochoria; 250 g ai/ha)","Plant response rating, Monochoria (monochoria; 500 g ai/ha)","Plant response rating, Rice, Transplanted (rice, transplanted; 250 g ai/ha)","Plant response rating, Rice, Transplanted (rice, transplanted; 500 g ai/ha)","Plant response rating (chickweed; Postemergence, 16 g ai/ha)","Plant response rating (chickweed; Postemergence, 31 g ai/ha)","Plant response rating (chickweed; Postemergence, 62 g ai/ha)","Plant response rating (chickweed; Postemergence, 125 g ai/ha)","Plant response rating (chickweed; Postemergence, 250 g ai/ha)","Plant response rating, Chickweed (chickweed; Preemergence, 62 g ai/ha)","Plant response rating (chickweed; Preemergence, 250 g ai/ha)","Plant response rating (kochia; Postemergence, 16 g ai/ha)","Plant response rating (kochia; Postemergence, 62 g ai/ha)","Plant response rating (kochia; Postemergence, 125 g ai/ha)","Plant response rating (kochia; Postemergence, 250 g ai/ha)","Plant response rating, Kochia (kochia; Preemergence, 31 g ai/ha)","Plant response rating, Kochia (kochia; Preemergence, 62 g ai/ha)","Plant response rating (kochia; Preemergence, 250 g ai/ha)","Plant response rating (chamomile; Postemergence, 16 g ai/ha)","Plant response rating (chamomile; Postemergence, 31 g ai/ha)",also measured
O=C1NCC(c2cccc(C(F)(F)F)c2)C1C(=O)Nc1ccccc1F (racemic) [Compound 3],90,100,0,0,–,–,–,–,–,–,–,–,–,–,–,–,–,–,–,–,–
O=C1NCC(c2ccc(F)c(F)c2)C1C(=O)Nc1cccc(F)c1 (racemic) [Compound 12],–,–,–,–,0,0,0,20,30,0,0,5,20,20,35,0,0,0,0,0,"Plant response rating (chickweed; Preemergence, 125 g ai/ha): 0; Plant response rating (kochia; Postemergence, 31 g ai/ha): 5; Plant response rating, Kochia (kochia; Preemergence, 16 g ai/ha): 0; Plant response rating (kochia; Preemergence, 125 g ai/ha): 0; Plant response rating (chamomile; Postemergence, 62 g ai/ha): 0; Plant response rating (chamomile; Postemergence, 125 g ai/ha): 0; Plant response rating (chamomile; Postemergence, 250 g ai/ha): 0; Plant response rating, Chamomile (chamomile; Preemergence, 31 g ai/ha): 0; Plant response rating, Chamomile (chamomile; Preemergence, 62 g ai/ha): 0; Plant response rating, Chamomile (chamomile; Preemergence, 16 g ai/ha): 0; Plant response rating (chamomile; Preemergence, 125 g ai/ha): 0; Plant response rating (chamomile; Preemergence, 250 g ai/ha): 20"
O=C1NCC(c2cc(F)c(F)c(F)c2)C1C(=O)Nc1ccccc1C(F)(F)F (racemic) [Compound 33],–,–,–,–,0,0,0,10,10,–,–,0,0,0,10,–,–,–,0,0,"Plant response rating (kochia; Postemergence, 31 g ai/ha): 0; Plant response rating (chamomile; Postemergence, 62 g ai/ha): 0; Plant response rating (chamomile; Postemergence, 125 g ai/ha): 0; Plant response rating (chamomile; Postemergence, 250 g ai/ha): 0"
O=C1NCC(c2cc(F)c(F)c(F)c2)C1C(=O)Nc1ccccc1F (racemic) [Compound 34],–,–,–,–,0,0,0,10,20,–,–,0,0,10,25,–,–,–,0,0,"Plant response rating (chamomile; Postemergence, 62 g ai/ha): 0; Plant response rating (chamomile; Postemergence, 125 g ai/ha): 0; Plant response rating (chamomile; Postemergence, 250 g ai/ha): 0"
O=C1NCC(c2cccc(C(F)(F)F)c2)C1C(=O)Nc1ccc(F)cc1F (racemic) [Compound 207],100,100,0,0,–,–,–,–,–,60,100,–,–,–,–,10,10,60,–,–,"Plant response rating, Chickweed (chickweed; Preemergence, 31 g ai/ha): 60; Plant response rating, Chickweed (chickweed; Preemergence, 125 g ai/ha): 70; Plant response rating, Kochia (kochia; Preemergence, 125 g ai/ha): 10; Plant response rating, Chamomile (chamomile; Preemergence, 31 g ai/ha): 75; Plant response rating, Chamomile (chamomile; Preemergence, 62 g ai/ha): 80; Plant response rating, Chamomile (chamomile; Preemergence, 125 g ai/ha): 85; Plant response rating (chamomile; Preemergence, 250 g ai/ha): 85; Plant response rating, Monochoria (monochoria; 125 g ai/ha): 65; Plant response rating, Rice, Transplanted (rice, transplanted; 125 g ai/ha): 0"
O=C1NCC(c2ccc(C(F)(F)F)c(F)c2)C1C(=O)Nc1cccc(F)c1F (racemic) [Compound 247],70,75,0,0,–,–,–,–,–,–,–,–,–,–,–,–,–,–,–,–,"Plant response rating, Monochoria (monochoria; 125 g ai/ha): 70; Plant response rating, Monochoria (monochoria; 1000 g ai/ha): 75; Plant response rating, Monochoria (monochoria; 2000 g ai/ha): 75; Plant response rating, Rice, Transplanted (rice, transplanted; 125 g ai/ha): 0; Plant response rating, Rice, Transplanted (rice, transplanted; 1000 g ai/ha): 10; Plant response rating, Rice, Transplanted (rice, transplanted; 2000 g ai/ha): 15"
O=C1NCC(c2cccc(C(F)(F)F)c2)C1C(=O)Nc1cccc(F)c1F (stereo not drawn) [Compound 241],–,–,–,–,–,–,–,–,–,80,100,–,–,–,–,20,30,70,–,–,"Plant response rating, Chickweed (chickweed; Preemergence, 31 g ai/ha): 90; Plant response rating, Chickweed (chickweed; Preemergence, 125 g ai/ha): 95; Plant response rating, Kochia (kochia; Preemergence, 125 g ai/ha): 80"
CN1CC(c2ccc(F)cc2)C(C(=O)Nc2cccc(F)c2F)C1=O (stereo not drawn) [Compound 271],100,100,0,15,–,–,–,–,–,–,–,–,–,–,–,–,–,–,–,–,"Plant response rating, Monochoria (monochoria; 64 g ai/ha): 85; Plant response rating, Monochoria (monochoria; 125 g ai/ha): 100; Plant response rating, Rice, Transplanted (rice, transplanted; 64 g ai/ha): 0; Plant response rating, Rice, Transplanted (rice, transplanted; 125 g ai/ha): 0"
